{"source": "patent US10807952B2", "about": "(Achillion Pharmaceuticals, Inc., priority 2015, dated 2020)"}
{"target": "Human Factor D (Homo sapiens (Human), UniProt P00746)", "sequence (P00746 26-253)": "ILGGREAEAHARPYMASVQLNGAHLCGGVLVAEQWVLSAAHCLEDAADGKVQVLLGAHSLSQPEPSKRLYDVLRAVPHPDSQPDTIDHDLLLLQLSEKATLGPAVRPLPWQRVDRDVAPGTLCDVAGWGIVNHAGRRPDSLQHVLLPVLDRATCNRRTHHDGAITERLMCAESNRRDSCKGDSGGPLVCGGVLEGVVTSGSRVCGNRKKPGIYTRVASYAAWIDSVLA", "experiment": "Human Factor D assay (Z-L-Lys-SBzl / DTNB, absorbance at 405 nm)", "format": "biochemical", "details": "Table 3; Human Factor D 80 nM, assay of Example 13", "protocol": "Human Factor D (purified from human serum, Complement Technology, Inc.) at 80 nM final concentration was incubated with test compound at various concentrations for 5 minutes at room temperature in 50 mM Tris, 1M NaCl, pH 7.5. A synthetic substrate Z-L-Lys-SBzl and DTNB (Ellman's reagent) were added to final concentrations of 100 μM each. […] IC50 values were calculated by nonlinear regression of complement Factor D reaction rates as a function of test compound concentration.", "units": {"IC50": "nM"}}
{"smiles": "CC(=O)c1cn(CC(=O)OC(C)(C)C)c2cc(-c3cccc(NC(=O)[C@@H]4C[C@@H](F)CN4C(=O)Cn4nc(C(N)=O)c5ccccc54)c3F)ccc12", "note": "[Compound 30, tert-butyl 2-(3-acetyl-6-(3-((2S,4R)-1-(2-(3-carbamoyl-1H-indazol-1-yl)acetyl)-4-fluoropyrrolidine-2-carboxamido)-2-fluorophenyl)-1H-indol-1-yl)acetate]", "IC50": "1000 to 10000"}
{"smiles": "CC(=O)c1cn(CC(=O)O)c2cc(-c3cccc(NC(=O)[C@@H]4C[C@@H](F)CN4C(=O)Cn4nc(C(N)=O)c5ccccc54)c3F)ccc12", "note": "[Compound 31, 2-(3-acetyl-6-(3-((2S,4R)-1-(2-(3-carbamoyl-1H-indazol-1-yl)acetyl)-4-fluoropyrrolidine-2-carboxamido)-2-fluorophenyl)-1H-indol-1-yl)acetic acid]", "IC50": "1000 to 10000"}
{"smiles": "N#Cc1n[nH]c2cc(-c3cccc(NC(=O)[C@@H]4C[C@@H](F)CN4C(=O)Cn4nc(C(N)=O)c5ccccc54)c3F)ccc12", "note": "[Compound 32, 1-(2-((2S,4R)-2-(3-(3-cyano-1H-indazol-6-yl)-2-fluorophenyl-carbamoyl)-4-fluoropyrrolidin-1-yl)-2-oxoethyl)-1H-indazole-3-carboxamide]", "IC50": "< 1000"}
{"smiles": "NC(=O)c1nn(CC(=O)N2C[C@H](F)C[C@H]2C(=O)Nc2cccc(-c3ccccc3Cl)c2F)c2cc(C(F)(F)F)sc12", "note": "[Compound 33, 1-(2-((2S,4R)-2-(2′-chloro-2-fluorobiphenyl-3-ylcarbamoyl)-4-fluoropyrrolidin-1-yl)-2-oxoethyl)-5-(trifluoromethyl)-1H-thieno[3,2-c]pyrazole-3-carboxamide]", "IC50": "< 1000"}
{"smiles": "NC(=O)c1ccc(Cl)c(-c2cccc(NC(=O)[C@@H]3C[C@@H](F)CN3C(=O)Cn3nc(C(N)=O)c4sc(C(F)(F)F)cc43)c2F)c1", "note": "[Compound 39, 1-(2-((2S,4R)-2-((5′-Carbamoyl-2′-chloro-2-fluoro-[1,1′-biphenyl]-3-yl)carbamoyl)-4-fluoropyrrolidin-1-yl)-2-oxoethyl)-5-(trifluoromethyl)-1H-thieno[3,2-c]pyrazole-3-carboxamide]", "IC50": "< 1000"}
{"smiles": "NC(=O)c1nn(CC(=O)N2C[C@H](F)C[C@H]2C(=O)Nc2cccc(Br)n2)c2cc(S(F)(F)(F)(F)F)ccc12", "note": "[Compound 40, 1-(2-((2S,4R)-2-((6-Bromopyridin-2-yl)carbamoyl)-4-fluoropyrrolidin-1-yl)-2-oxoethyl)-6-(pentafluoro-λ^6-sulfanyl)-1H-indazole-3-carboxamide]", "IC50": "< 1000"}
{"smiles": "O=C(Nc1cccc(-c2ccccc2Cl)c1F)[C@@H]1C[C@@H](F)CN1C(=O)Cc1cccc(Br)n1", "note": "[Compound 41, (2S,4R)-1-(2-(6-bromopyridin-2-yl)acetyl)-N-(2′-chloro-2-fluorobiphenyl-3-yl)-4-fluoropyrrolidine-2-carboxamide]", "IC50": "1000 to 10000"}
{"smiles": "O=C(Nc1cccc(-c2ccccc2Cl)c1F)[C@@H]1C[C@@H](F)CN1C(=O)Cc1cccc(Cl)c1", "note": "[Compound 42]", "IC50": "< 1000"}
{"smiles": "NC(=O)c1nn(CC(=O)N2C[C@H](F)C[C@H]2C(=O)Nc2cccc(-c3ccc4nc(F)[nH]c4c3Cl)c2F)c2ccccc12", "note": "[Compound 44, 1-(2-((2S,4R)-2-(3-(7-chloro-2-fluoro-1H-benzo[d]imidazol-6-yl)-2-fluorophenyl-carbamoyl)-4-fluoropyrrolidin-1-yl)-2-oxoethyl)-1H-indazole-3-carboxamide]", "IC50": "< 1000"}
{"smiles": "NC(=O)c1nn(CC(=O)N2C[C@H](F)C[C@H]2C(=O)Nc2cccc(-c3ccccc3Cl)c2F)c2cc(S(F)(F)(F)(F)F)ccc12", "note": "[Compound 45]", "IC50": "< 1000"}
{"smiles": "NC(=O)c1nn(CC(=O)N2C[C@H](F)C[C@H]2C(=O)Nc2cccc(C(=O)Nc3nc4cccc(Cl)c4[nH]3)c2F)c2ccccc12", "note": "[Compound 46]", "IC50": "< 1000"}
{"smiles": "NC(=O)c1nn(CC(=O)N2C[C@H](F)C[C@H]2C(=O)Nc2cccc(-c3ccc4cn[nH]c4c3Cl)c2F)c2ccccc12", "note": "[Compound 47]", "IC50": "< 1000"}
{"smiles": "COc1cc(Br)cc(CC(=O)N2C[C@H](F)C[C@H]2C(=O)Nc2cccc(-c3ccccc3Cl)c2F)c1", "note": "[Compound 48, (2S,4R)-1-(2-(3-bromo-5-methoxyphenyl)acetyl)-N-(2′-chloro-2-fluorobiphenyl-3-yl)-4-fluoropyrrolidine-2-carboxamide]", "IC50": "< 1000"}
{"smiles": "Cc1cc2c(s1)c(C(N)=O)nn2CC(=O)N1C[C@H](F)C[C@H]1C(=O)Nc1cccc(-c2cc(C(N)=O)ccc2Cl)c1F", "note": "[Compound 49, 1-(2-((2S,4R)-2-(5′-carbamoyl-2′-chloro-2-fluorobiphenyl-3-ylcarbamoyl)-4-fluoropyrrolidin-1-yl)-2-oxoethyl)-5-methyl-1H-thieno[3,2-c]pyrazole-3-carboxamide]", "IC50": "< 1000"}
{"smiles": "NC(=O)c1nn(CC(=O)N2C[C@H](F)C[C@H]2C(=O)Nc2cccc(-c3cnc4nc[nH]c4c3Cl)c2F)c2ccccc12", "note": "[Compound 50, 1-(2-((2S,4R)-2-(3-(7-chloro-1H-imidazo[4,5-b]pyridin-6-yl)-2-fluorophenyl-carbamoyl)-4-fluoropyrrolidin-1-yl)-2-oxoethyl)-1H-indazole-3-carboxamide]", "IC50": "< 1000"}
{"smiles": "CC(C)(C)OC(=O)NCC(=O)c1ccc(Cl)c(-c2cccc(NC(=O)[C@@H]3C[C@@H](F)CN3C(=O)Cn3nc(C(N)=O)c4ccccc43)c2F)c1", "note": "[Compound 51, tert-butyl 2-(3′-((2S,4R)-1-(2-(3-carbamoyl-1H-indazol-1-yl)acetyl)-4-fluoropyrrolidine-2-carboxamido)-6-chloro-2′-fluorobiphenyl-3-yl)-2-oxoethylcarbamate]", "IC50": "< 1000"}
{"smiles": "NC(=O)c1nn(CC(=O)N2C[C@H](F)C[C@H]2C(=O)Nc2cccc(-c3ccc4scnc4c3)c2F)c2ccccc12", "note": "[Compound 52, 1-(2-((2S,4R)-2-(3-(benzo[d]thiazol-5-yl)-2-fluorophenyl-carbamoyl)-4-fluoropyrrolidin-1-yl)-2-oxoethyl)-1H-indazole-3-carboxamide]", "IC50": "< 1000"}
{"smiles": "NC(=O)c1cn(CC(=O)N2CCC[C@H]2C(=O)Nc2cccc(-c3ccccc3Cl)c2F)n2ccnc12", "note": "[Compound 54]", "IC50": "> 10000"}
{"smiles": "NC(=O)c1cn(CC(=O)N2C[C@H](F)C[C@H]2C(=O)Nc2cccc(Br)n2)n2ccnc12", "note": "[Compound 55, 5-(2-((2S,4R)-2-(6-bromopyridin-2-ylcarbamoyl)-4-fluoropyrrolidin-1-yl)-2-oxoethyl)-5H-imidazo[1,2-b]pyrazole-7-carboxamide]", "IC50": "> 10000"}
{"smiles": "NC(=O)c1nn(CC(=O)N2C[C@H](F)C[C@H]2C(=O)Nc2cccc(-c3ccc4ocnc4c3)c2F)c2ccccc12", "note": "[Compound 57, 1-(2-((2S,4R)-2-(3-(benzo[d]oxazol-5-yl)-2-fluorophenyl-carbamoyl)-4-fluoropyrrolidin-1-yl)-2-oxoethyl)-1H-indazole-3-carboxamide]", "IC50": "< 1000"}
{"smiles": "NC(=O)c1cn(CC(=O)N2C[C@H](F)C[C@H]2C(=O)Nc2cccc(-c3ccccc3Cl)c2F)n2ccnc12", "note": "[Compound 58, 5-(2-((2S,4R)-2-(2′-chloro-2-fluorobiphenyl-3-ylcarbamoyl)-4-fluoropyrrolidin-1-yl)-2-oxoethyl)-5H-imidazo[1,2-b]pyrazole-7-carboxamide]", "IC50": "1000 to 10000"}
{"smiles": "NC(=O)c1nn(CC(=O)N2C[C@H](F)C[C@H]2C(=O)Nc2cccc(-c3ccc4c(c3Cl)NC(=O)CN4)c2F)c2ccccc12", "note": "[Compound 59, 1-(2-((2S,4R)-2-((3-(5-Chloro-3-oxo-1,2,3,4-tetrahydroquinoxalin-6-yl)-2-fluorophenyl)carbamoyl)-4-fluoropyrrolidin-1-yl)-2-oxoethyl)-1H-indazole-3-carboxamide]", "IC50": "< 1000"}
